Values of other authors as cited in patent publication US11083740B2, “Cancer therapy” (NED Biosystems, Inc., priority 2013, dated 2021).

Tests used:
[1] = test system: pancreatic carcinoma cells
HUVECs [2] = test system: HUVECs
[3] = in vivo
[4] = test system: hormone refractory PC-3 prostate cancer cells; settings: PC-3 cells
HUVECs [5] = settings: partially AMPK-dependent
[6] = test system: cultured bovine granulosa cells; settings: AMPK-dependent mechanism
[7] = in vivo; remark: listed apart in the source
[8] = in vivo; remark: listed apart in the source

## [Met(5)]-enkephalin [Opioid Growth Factor [Met(5)]-enkephalin]
50 μg/kg injected subcutaneously twice daily
  toxicity of metronomic dosing: no toxicity
30-minute intravenous infusion once or twice weekly
  maximum tolerated dose: 0.25 mg/kg

## COc1ccc2[nH]cc(CCNC(C)=O)c2c1 [Melatonin, N-acetyl-5-methoxytryptamine]
[1]
  VEGF protein secreted and produced: decreases
HUVECs [2]
  cell proliferation and migration: inhibits

## O=C(O)CCCCC1CCSS1 (stereo not drawn) [Alpha-Lipoic Acid, 1,2-dithiolane-3-pentanoic acid]
[3]
  bioavailability when taken with a meal: decreases

## O=c1c(-c2ccc(O)cc2)coc2cc(O)cc(O)c12 [Genistein]
[4]
  IGF-1-stimulated cell growth: significant inhibition

## CN(C)C(=N)N=C(N)N [Metformin]
HUVECs [5]
  proliferation, migration, and MMP-2 and -9 expression: strongly inhibited
[6]
  response to IGF1: reducing cell growth, protein synthesis, MAPK3/1, and P90RSK phosphorylation

## CC(C)[C@@H](CC[C@@H](C)[C@H]1CC[C@H]2[C@@H]3[C@H](O)C[C@H]4C[C@@H](NCCCNCCCCN)CC[C@]4(C)[C@H]3CC[C@]12C)OS(=O)(=O)O [Squalamine]
[7]
  oral bioavailability: does not have high oral bioavailability
[8]
  maximum tolerated dose (MTD): 300 mg/m2/day
